One assay relates to dermal fibroblasts. Kind of assay: TBARS lipid peroxidation assay, UV-irradiated dermal fibroblasts. The format is cell-based. The settings on record: IK-3 at the highest concentration (5 μM); 1,25D. The protocol: The ability of the polypeptide RSKAKNPLYRRRRRRRRR to alter UV-induced oxidative damage of cell-derived lipids was examined using the TBARS thiobarbituric acid-reactive substances (TBARS) lipid peroxidation assay.
After irradiation or sham-irradiation of dermal fibroblasts, supernatants (900 μL) were collected. In brief, 90 μL of butylated hydroxytoluene (2% w/w in ethanol) was added and samples kept frozen (−20° C.) until the TBARS assay. Petri dishes were washed twice with 1 mL of HBSS, cells scraped in 600 μL of water and 60 μL of 0.5% aqueous Triton X100 added to this solution, for protein determination carried out by the Lowry method (Lowry O H et al, J. Biol. Chem., 1951, 193:265-275). TBARS were fluorometrically assayed as described (Morlière P et al, Biochim. Biophys. Acta, 1991, 1084:261-268). Briefly, thawing samples were heated in the presence of thiobarbituric acid in acidic conditions, and TBARS extracted with 1-butanol and fluorometrically quantified (λexc=515 nm and Aem=550 nm). Tetraethoxypropane, which quantitatively yields the malondialdehyde-thiobarbituric acid adduct in the assay conditions, was used for calibration. TBARS values, expressed in malondialdehyde (MDA) equivalents, were normalized to the cell protein for each Petri dish. Each TBARS determination was performed in triplicate (e.g., with three Petri dishes per data point).

For the next assay, the system named is Skh: hr1 hairless mice. The assay is described as follows: CPD (thymine dimer) immunohistochemistry in UV-irradiated mouse skin. In kind it is in vivo. The settings on record: topical immediately after UVR; IK34720 20, 100 or 200 μg, Calcitriol 11.4 pmol/cm2; 3 hours post-UVR; vs vehicle. The protocol: Female Skh: hr1 hairless mice were exposed to solar simulated UV-irradiation as described above at Example 4. Immediately after irradiation mice were treated topically on the dorsal surface also as described in Example 4. Subsequently, skin was fixed at 3 hours post-UVR, and subjected to immuno-histochemical staining using the antibody directed against thymine dimers (CPD) described above at 10 μg/ml. […] In FIG. 9, dark staining in nuclei indicates the presence of thymine dimers (CPD), and the % area stained is presented. Immunohistology was quantified as per Example 4.

The subject of another assay is primary keratinocytes. The assay is described as follows: ATP levels, CellTiter-Glo 2.0 Assay, after ssUV. The format is cell-based. The settings on record: 1.5 hours after UVR; compared with Calcitriol. The protocol:
The influence of the polypeptide IK34720 (SEQ ID NO: 3) on intracellular ATP following UV exposure was assessed using the following protocol.
Primary keratinocytes were harvested as described above in Example 2 and were either exposed to ssUV-irradiation (UVR), as described above in Example 2 or not irradiated (SHAM), in the presence or absence of Calcitriol (positive control) or polypeptide IK34720 (SEQ ID NO: 3; RSKAKNPLYRRRRRRRRR), at the concentrations described in Example 2.
ATP levels were determined 1.5 hours after UVR using the CellTiter-Glo® 2.0 Assay (Promega, WI, USA) as described previously (Rybchyn et al., vide supra, 2017). All data in FIG. 4 is shown as mean+SD. *p<0.05, **p<0.01. Cells were prepared and irradiated as described above.
(Cellular ATP, detected with luciferase, serves as a proxy for viable cell number.)

Assay [1] deals with ICR mice, punch skin wound. Kind of assay: murine wound model, wound closure. In kind it is in vivo. The settings on record: topical 10 μg per mouse daily for 10 consecutive days; Day 5 to Day 11; vs negative control (PBS). An excerpt:
FIGS. 1 and 2 illustrate the effect of polypeptides IK34720 (SEQ ID NO: 3—RSKAKNPLYRRRRRRRRR) (FIG. 1) and the dextro-reverso sequence IK236770 (SEQ ID NO: 4—rrrrrrrrrylpnkaksr) (FIG. 2), on wound healing over 10 days in a murine wound model in accordance with the following protocol.
Three groups of 8 male ICR mice with a mean weight of 22 g (+2 g) were used in the present study. The animals were housed in individual cages during the study. Under isoflurane gas anaesthesia, the shoulder and back region of each animal was shaved and a sharp punch (ID 12 mm) was used to induce a wound by removing the skin, including panniculus carnosus and adherent tissues on Day 1.
Following induction of the wound the polypeptides IK34720 and IK236770 were topically administered to the site of the wound at a dosage of 10 μg per animal. […] An additional group which comprised the administration of Phosphate buffered Saline (PBS) at pH 7.4 was used as a negative control.
The wound healing was analysed on Days 5, 7, 9 and 11 by tracing the periphery of the wound onto clear plastic sheets with the wound area calculated by an Image analyzer ProPlus (Media Cybernetics, Version 4.5.0.29. The percentage closure of the wound (%) was calculated. Percentage closure of the wound was determined on 5, 7, 9 and 11. ANOVA and Dunnett's test were applied to test significant significance between the treated groups (peptide and positive control groups) and the negative control group at each time point of measurement. Differences were considered statistically significant at P<0.05, and are indicated by *.

Another assay relates to human skin explants. The assay is described as follows: sunburn (apoptotic) cells in UV-irradiated human skin explants. The format is cell-based. The protocol:
Skin explants were cultured irradiated and treated as described above for CPD, and subsequent to treatment were stained and quantified as described for Example 6.

The subject of another assay is MMP1. Kind of assay: MMP1 immunohistochemical staining in UV-irradiated human skin explants. The format is cell-based. The protocol: Human skin (2×human explant tissues) removed at elective surgery was cleaned, dissected and cut into pieces of approx. 5 mm×5 mm. Each piece was placed in a well of a 96 well plate, with individual plates prepared to assess the effects 3 hrs post treatment. Skin was subjected to UV-radiation from solar-simulated UV source for 1.5 h (UVR), or non-irradiation (SHAM), and treated immediately after with a vehicle control, Calcitriol (1 nM) or the polypeptide IK34720 (SEQ ID NO: 3) at concentrations of 50 μM, 250 μM or 500 μM. In FIG. 17, IK50, IK250 and IK500 as μM concentrations refers to 15 μg, 75 μg and 150 μg of IK34720 per 120 μL culture medium/explant, respectively.
Samples harvested at 3 hrs were fixed, sectioned, immunohistochemically stained for MMP1 and quantified for MMP1 expression, by expressing epidermal area stained for MMP1 as a function of total epidermal area examined.

Where no end group is shown, it is not given here.

Take “RSKAKNPLYRRRRRRRRR (not fully specified (some residues)) [IK34720]”: the “significant difference in TRS (TBA reactive substances) between Sham and UV irradiation” value in the assay with dermal fibroblasts is “not seen”. The “CPD formation in the skin (% area stained)” value in the assay on Skh: hr1 hairless mice was “inhibits CPD formation”. In addition, the ATP levels entry in the assay with primary keratinocytes is “enhanced the ATP levels”. In assay [1], the wound closure percentage result was “statistically significant increase”. The “number of apoptotic cells” value is “reduces the number of apoptotic cells” in the assay with human skin explants (50 μM and 250 μM, 3 hrs and 24 hrs post UV-irradiation); “statistically significantly reduces the number of apoptotic cells” in the assay with human skin explants (80 μM, 400 μM and 800 μM, following UV-irradiation, data not shown); “statistically significantly reduces the number of apoptotic cells” in the assay with human skin explants (500 μM, 3 hrs and 24 hrs post UV-irradiation). The “percentage of MMP1 positive cells” value in the assay with MMP1 (500 μM, 3 hrs post irradiation) is “statistically significantly reduced”. Besides, the “cells staining for MMP-1” value with MMP1 (3 hrs post irradiation/treatment, Calcitriol 1 nM, IK34720 50, 250 or 500 μM) is listed as “fewer stained cells”.

(Values after patent US20250262139A1, “POLYPEPTIDES AND METHODS FOR IMPROVING SKIN CONDITIONS” (INTERK PEPTIDE THERAPEUTICS LIMITED, priority 2020, published 2025).)
